# Paper PMC3059353 (Biochemistry, 2011)
# Target: T1, adenine deaminase (ADE) (Escherichia coli, UniProt P31441)
# T1 sequence (P31441 1-588): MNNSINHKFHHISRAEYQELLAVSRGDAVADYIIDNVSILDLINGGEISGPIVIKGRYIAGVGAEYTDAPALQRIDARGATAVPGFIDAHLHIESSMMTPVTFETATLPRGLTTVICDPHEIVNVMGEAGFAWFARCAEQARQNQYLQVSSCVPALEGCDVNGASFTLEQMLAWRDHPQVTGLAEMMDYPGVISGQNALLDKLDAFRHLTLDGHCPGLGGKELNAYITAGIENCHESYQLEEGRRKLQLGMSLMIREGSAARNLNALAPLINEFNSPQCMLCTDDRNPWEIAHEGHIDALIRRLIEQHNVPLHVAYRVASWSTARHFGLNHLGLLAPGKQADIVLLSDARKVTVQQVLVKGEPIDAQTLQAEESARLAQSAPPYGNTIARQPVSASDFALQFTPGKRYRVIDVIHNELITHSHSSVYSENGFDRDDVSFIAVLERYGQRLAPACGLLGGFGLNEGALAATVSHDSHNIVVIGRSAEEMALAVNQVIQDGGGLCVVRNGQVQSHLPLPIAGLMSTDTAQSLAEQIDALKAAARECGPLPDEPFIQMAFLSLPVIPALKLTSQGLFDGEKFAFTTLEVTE
# Test: GDH-coupled adenine deamination assay after […] h incubation with Mn/Mn-ADE
# Format: biochemical
smiles,measurement,value
Clc1ncnc2[nH]cnc12 [6-chloropurine],Ki,130 ± 15 nM
